{
  "source": "patent US20060165761A1",
  "about": "“Wound dressings comprising vanadate complexed with organic ligands” (priority 2002, published 2006)",
  "key": {"Adult dermal fibroblasts [1]": {"test_system": "Adult dermal fibroblasts", "assay": "XTT cell proliferation assay", "format": "cell-based", "settings": "for amount of fibroblast proliferation (FIG. 2): 72 hrs; for ability to stimulate cell proliferation (overall summary): absence of growth factors", "description": "(§1) Adult dermal fibroblasts were grown until 95% confluent, trypsinized (2 ml trypsin plate) to prepare a single suspension of fibroblasts. These cells were diluted in DMEM (+10% FBS) media and diluted to a concentration of 25000 cells/ml. […] was placed in each well of a 96 well microplate (2500 cells/well). The fibroblasts were allowed to adhere and spread by incubating for 24 hours (at 37° C., 5% CO2 in a humidified atmosphere) at which point the media was removed and replaced with serum free DMEM+/−stimulant/sample.\n(§2) The following vanadate complexes were added in quadruplicate: bpV(pic) was added to a final concentration of 8.14 and 0.81 μM, bpV(bipy) (bisperoxo(bipyridine)oxovanadate) was added to a final concentration of 178 and 17.8 μM. bpV(phen) was added to a final concentration of 12 or 0.124 μM, DMHV (bis-dimethylhydroxamido vanadate, (Me2N—O)2VO(OH)) was added to a final concentration of […]. The vanadate complexes were all obtained as the solid potassium salts from Calbiochem, Catalog numbers 203705, 322130, and 203695.\nNegative control samples were untreated and positive control samples were cells treated with DMEM containing 10% FBS or 0.15 ng/ml epidermal growth factor. As a further positive control, Dephostatin (a known tyrosine protein phosphatase inhibitor obtained from Calbiochem, catalog number 263200) was added to a final concentration of 23.8 μM. […]\nAfter 72 hrs the fluid was aspirated off and […] of the XTT labelling mixture (prepared by adding 0.1 ml Electron coupling reagent to every 5 mls of XTT labelling reagent) was added to each well. The plates were read at 450 nm, using a MR5000 plate reader at 2, 2.5 and 3.5 hrs."}, "Adult dermal fibroblasts [2]": {"test_system": "Adult dermal fibroblasts", "assay": "Determination of collagen levels (ELISA) deposited by fibroblasts", "format": "cell-based", "settings": "for ability to stimulate collagen deposition (overall summary): absence of growth factors", "description": "as §1, §2\nNegative control samples were untreated and positive control samples were cells treated with DMEM containing 10% FBS or 0.15 ng/ml epidermal growth factor. As a further positive control, Dephostatin (a known tyrosine protein phosphatase inhibitor obtained from Calbiochem, catalog number 263200) was added to a final concentration of 23.8 μM.\nAdditional experiments were performed using the phosphatase inhibitors indicated above in the presence of epidermal growth factor (0.015 ng/ml) or platelet derived growth factor (6 ng/ml).\nThe amount of collagen produce and deposited into the extracellular environment under each experimental condition was measured using an ELISA method. Collagen type I standards (Sigma cat no 7774, lot 32K3775) and material aspirated from the fibroblasts were coated onto 96 well plates (FALCON 3072) by incubation at 37° C. for 30 min. Non-specific sites were blocked by the addition of […] of 5% solution of bovine serum albumin (BSA) for 30 min. Each well was incubated with a monoclonal antibody against collagen used at a dilution of 1/2000 ((sigma cat no. 2456, lot 081K4897) overnight at 4° C. Samples were washed five times for 5 minutes in wash buffer (PBS+0.05% (v/v) TWEEN-20) and incubated with an HRP-conjugated second antibody against mouse IgG at a dilution of 1/10000 for 2 hr. Each well was washed five times in wash buffer. Deposited collagen was detected using the Sigma FAST method used according to the manufacturers instructions. The plates were incubated at room temperature for 30 minutes and read using a MR5000 plate reader at 450 nm."}, "bone cell": {"test_system": "bone cell", "settings": "in vitro; cited from earlier work"}, "[3]": {"test_system": "capillary endothelial cells", "settings": "in vitro; mimics fibroblast growth factor; cited from earlier work"}, "acute wounds in rats": {"test_system": "acute wounds in rats", "settings": "vanadate ingestion; cited from earlier work"}},
  "data": [
    {"compound": "CN(C)[O][V](=[O])([OH])[O]N(C)C", "note": "[DMHV, bis-dimethylhydroxamido vanadate, (Me2N—O)2VO(OH)]", "values": [
      {"measurement": "amount of fibroblast proliferation (FIG. 2)", "setting": "Adult dermal fibroblasts [1]; 64 μM, compared to negative control", "result": "greater than the negative control"},
      {"measurement": "ability to stimulate cell proliferation (overall summary)", "setting": "Adult dermal fibroblasts [1]", "result": "equivalent to the DMHV positive control"},
      {"measurement": "amount of collagen deposited by fibroblasts (FIG. 1)", "setting": "Adult dermal fibroblasts [2]; 6.4-64 μM, compared to positive control", "result": "equivalent to the positive control"},
      {"measurement": "ability to stimulate collagen deposition (overall summary)", "setting": "Adult dermal fibroblasts [2]", "result": "equivalent to the DMHV positive control"}
    ]},
    {"compound": "CN(N=O)c1cc(O)ccc1O", "note": "[Dephostatin, reference compound]", "values": [
      {"measurement": "amount of fibroblast proliferation (FIG. 2)", "setting": "Adult dermal fibroblasts [1]; 23.8 μM, compared to negative control", "result": "greater than the negative control"},
      {"measurement": "amount of collagen deposited by fibroblasts (FIG. 1)", "setting": "Adult dermal fibroblasts [2]; 23.8 μM, compared to positive control", "result": "equivalent to the positive control"}
    ]},
    {"compound": "[O-2].[O-][O-].[O-][O-].[V+5].c1cnc2c(c1)ccc1cccnc12", "note": "[bpV(phen), bisperoxo-(1,10-phenanthroline)-oxovanadate]", "values": [
      {"measurement": "ability to stimulate cell proliferation (overall summary)", "setting": "Adult dermal fibroblasts [1]; listed as bpV (Phen)", "result": "inhibitor of proliferation"},
      {"measurement": "ability to stimulate cell proliferation (overall summary)", "setting": "Adult dermal fibroblasts [1]; listed as bpV (phen)", "result": "exception"},
      {"measurement": "ability to stimulate cell proliferation (overall summary)", "setting": "Adult dermal fibroblasts [1]; listed as bpV(Phen)", "result": "does not enhance"},
      {"measurement": "ability to stimulate collagen deposition (overall summary)", "setting": "Adult dermal fibroblasts [2]; listed as bpV (phen)", "result": "exception"},
      {"measurement": "ability to stimulate collagen deposition (overall summary)", "setting": "Adult dermal fibroblasts [2]; listed as bpV(Phen)", "result": "does not enhance"}
    ]},
    {"compound": "[Na+].[Na+].[Na+].[O]=[V]([O-])([O-])[O-]", "note": "[vanadate, Sodium Orthovanadate]", "values": [
      {"measurement": "bone cell proliferation", "setting": "bone cell", "result": "stimulates"},
      {"measurement": "bone collagen synthesis", "setting": "bone cell", "result": "stimulates"},
      {"measurement": "endothelial cells invade collagen matrices and organise into tubules", "setting": "[3]", "result": "stimulates endothelial cells to invade collagen matrices and organise into tubules"},
      {"measurement": "gain in wound breaking strength", "setting": "acute wounds in rats", "result": "increases"},
      {"measurement": "organisation of collagen fibres during healing", "setting": "acute wounds in rats", "result": "better organised collagen fibres"}
    ]},
    {"compound": "Bisperoxo (5-hydroxy pyridine-2-carboxyvanadate) [bpV(pic)]", "values": [
      {"measurement": "amount of fibroblast proliferation (FIG. 2)", "setting": "Adult dermal fibroblasts [1]; 8.14 μM, compared to non treated negative control and FBS and EGF positive controls", "result": "most effective activator cell proliferation"},
      {"measurement": "amount of fibroblast proliferation (FIG. 3)", "setting": "Adult dermal fibroblasts [1]; 8.14 μM, compared to non treated and vanadate at 0.1 and 0.01 mmolar", "result": "more effective activator of cell proliferation"},
      {"measurement": "ability to stimulate cell proliferation (overall summary)", "setting": "Adult dermal fibroblasts [1]", "result": "more effective than even the 10% FBS positive control"},
      {"measurement": "amount of collagen deposited by fibroblasts (FIG. 1)", "setting": "Adult dermal fibroblasts [2]; 8.14 μm, compared to non treated negative control and FBS and EGF positive controls", "result": "most effective activator of collagen deposition"},
      {"measurement": "ability to stimulate collagen deposition (overall summary)", "setting": "Adult dermal fibroblasts [2]", "result": "more effective than even the 10% FBS positive control"}
    ]},
    {"compound": "bisperoxo(bipyridine)oxovanadate [bpV(bipy)]", "values": [
      {"measurement": "amount of fibroblast proliferation (FIG. 2)", "setting": "Adult dermal fibroblasts [1]; 17.8 μM, compared to negative control", "result": "greater than the negative control"},
      {"measurement": "amount of collagen deposited by fibroblasts (FIG. 1)", "setting": "Adult dermal fibroblasts [2]; 17.8 μM, compared to positive control", "result": "equivalent to the positive control"}
    ]}
  ]
}
